Here are results for four molecules from patent US20250382344A1, “Soluble GLP1/GIP/NPY2 Receptor Triple Agonists” (Boehringer Ingelheim International GmH, priority 2024, published 2025).

Each structure is given as a SMILES string.

Series [1] in a line: Solubility in 0.1 M phosphate buffer at pH 7. Particulars: 0.1 M phosphate buffer at pH 7, 10 mg/mL final peptide concentration, shaking 2 hours at room temperature, peptides as TFA-salts, measured sample pH 6.5-7.0; for solubility: read-out: Solubility. In kind it is physicochemical. Here is the method:
Peptides (as TFA-salts) were weighed out in a filter unit (Mini-UniPrep Syringeless Filter 0.45 μm, Whatman PVDF), and 0.1 M phosphate buffer at pH 7 was added to achieve 10 mg/mL final peptide concentration. The peptides were dissolved by shaking the filter units horizontally at 600 rpm for 2 hours at room temperature. Samples were then filtered to remove any insoluble particles. Controls were prepared by weighing out the corresponding peptide solid material and dissolving it in an appropriate vehicle (e.g. ACN:H2O) to a final concentration of 1 mg/mL. Both, the control and sample were analyzed by reversed phase chromatography. The area under the peak of the sample was compared to the control and the solubility was calculated based on that ratio. The pH was measured and recorded for each sample.

In the next series the target is T1, hGIPR (Homo sapiens, UniProt P48546).
T1 construct: expressed in transfected cells; host or cells: CHO CRE-luciferase reporter cells
T1 sequence (P48546 22-466): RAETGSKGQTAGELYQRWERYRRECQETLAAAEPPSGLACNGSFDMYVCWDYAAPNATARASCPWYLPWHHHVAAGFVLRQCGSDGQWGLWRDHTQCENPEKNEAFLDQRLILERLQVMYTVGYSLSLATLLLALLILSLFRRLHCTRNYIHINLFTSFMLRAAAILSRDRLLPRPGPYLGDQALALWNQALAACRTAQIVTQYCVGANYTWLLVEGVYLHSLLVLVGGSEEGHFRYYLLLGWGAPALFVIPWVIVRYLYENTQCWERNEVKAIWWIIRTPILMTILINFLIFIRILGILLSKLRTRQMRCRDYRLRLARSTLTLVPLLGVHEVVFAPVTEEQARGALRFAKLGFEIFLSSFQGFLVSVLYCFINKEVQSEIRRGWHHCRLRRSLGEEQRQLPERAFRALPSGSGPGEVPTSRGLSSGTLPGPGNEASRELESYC
The experiment in a line: hGIPR CreLuc assay in 0.5% and 100% plasma (CHO CRE-luciferase reporter cells). Particulars: 0.5% human plasma, read-out: hGIPR 0.5% hP. The series is classed as cell-based. From the text:
CHO and HEK-293 recombinant cell lines express a luciferase reporter gene under control of the CAMP responsive element (CRE). As a second recombinant protein the GLP-1 and NPY2 receptors were expressed in the reporter gene HEK cells, and the GIP receptor was expressed in the reporter gene CHO cells, respectively. Stimulation of these recombinant cells with an agonist leads to an increase of intracellular CAMP levels. In the presence of CAMP, the transcription factor CRE binding protein (CREB) binds to the CRE and to the CREB binding protein (CBP), which leads to transcription of the luciferase reporter gene. Peptides upon serial-dilution in 100% DMSO were transferred into 384-well assay plates with 5 μl pre-dispensed assay buffer (1×HBSS, 20 mM HEPES, pH7.4 supplemented with 0.5% human plasma) using acoustic dispensing on a Labcyte ECHO. Cryo-preserved transgenic reporter gene cells were thawed in assay buffer. 20 μl (10.000 cells/well) were added to the plate with the peptides and incubated for 4 hours at 37° C. in a humidified incubator. Following incubation, assay plates are equilibrated to room temperature, followed by addition of 25 μl of Bright-Glo™ Luciferase reagent, incubation at room temperature for 10 minutes and analysis of luminescence (Envision Reader). […] EC50 values were calculated by non-linear regression using sigmoid concentration-response with variable slope.
The same assays were run in the presence of 100% plasma with no additional buffer constituents.
(Reporter assays use an easily measured gene product as a stand-in for the process of interest.)

The term solubility denotes how much of the substance goes into solution per volume.

As for `CC[C@H](C)[C@H](NC(=O)[C@H](CCCCN)NC(=O)[C@H](CCC(=O)O)NC(=O)[C@H](CC(C)C)NC(=O)C(C)(C)NC(=O)[C@@H](NC(=O)[C@H](CO)NC(=O)[C@H](Cc1ccc(O)cc1)NC(=O)[C@H](CC(=O)O)NC(=O)[C@H](CO)NC(=O)[C@@H](NC(=O)[C@H](Cc1ccccc1)NC(=O)[C@@H](NC(=O)CNC(=O)[C@H](CCC(=O)O)NC(=O)C(C)(C)NC(=O)[C@@H](N)Cc1ccc(O)cc1)[C@@H](C)O)[C@@H](C)O)[C@@H](C)CC)C(=O)N[C@@H](C)C(=O)N[C@@H](CCC(N)=O)C(=O)NC(C)(C)C(=O)N[C@@H](C)C(=O)N[C@@H](Cc1ccccc1)C(=O)N[C@H](C(=O)N[C@@H](CCCNC(=N)N)C(=O)N[C@@H](Cc1c[nH]cn1)C(=O)N[C@@H](CC(C)C)C(=O)N[C@H](C(=O)N[C@@H](CC(N)=O)C(=O)N[C@@H](CCCCNC(=O)[C@@H](N)CCCCNC(=O)CC[C@H](NC(=O)CC[C@H](NC(=O)CC[C@H](NC(=O)CC[C@H](NC(=O)CC[C@H](NC(=O)CC[C@H](NC(=O)CCCCCCCCCCCCCCCCC(=O)O)C(=O)O)C(=O)O)C(=O)O)C(=O)O)C(=O)O)C(=O)O)C(=O)NC(C)(C)C(=O)N[C@H](C(=O)N[C@@H](CCCNC(=N)N)C(=O)N[C@@H](CCC(N)=O)C(=O)N[C@@H](CCCNC(=N)N)C(=O)N[C@@H](Cc1ccc(O)cc1)C(N)=O)[C@@H](C)O)[C@@H](C)CC)C(C)C` [Compound 24, Y-Aib-E-G-T-F-T-S-D-Y-S-I-Aib-L-E-K-I-A-Q-Aib-A-F-V-R-H-L-I-N-K(1,3)-Aib-T-R-Q-R-Y-NH2.C18DA-gGlu-gGlu-gGlu-gGlu-gGlu-gGlu-eLys(1,2)], in series [1], the solubility worked out at 8100 µg/mL.

Consider `CC[C@H](C)[C@H](NC(=O)[C@H](CC(C)C)NC(=O)[C@H](Cc1c[nH]cn1)NC(=O)[C@H](CCCNC(=N)N)NC(=O)[C@@H](NC(=O)[C@H](Cc1ccccc1)NC(=O)[C@H](C)NC(=O)C(C)(C)NC(=O)[C@H](CCC(N)=O)NC(=O)[C@H](C)NC(=O)[C@H](CCC(=O)O)NC(=O)[C@H](CCCCN)NC(=O)[C@H](CCC(=O)O)NC(=O)[C@H](CC(C)C)NC(=O)C(C)(C)NC(=O)[C@@H](NC(=O)[C@H](CO)NC(=O)[C@H](Cc1ccc(O)cc1)NC(=O)[C@H](CC(=O)O)NC(=O)[C@H](CO)NC(=O)[C@@H](NC(=O)[C@H](Cc1ccccc1)NC(=O)[C@@H](NC(=O)CNC(=O)[C@H](CCC(=O)O)NC(=O)C(C)(C)NC(=O)[C@@H](N)Cc1ccc(O)cc1)[C@@H](C)O)[C@@H](C)O)[C@@H](C)CC)C(C)C)C(=O)N[C@@H](CC(N)=O)C(=O)N[C@@H](CCCCNC(=O)[C@@H](N)CCCCNC(=O)[C@H](CCC(=O)O)NC(=O)CC[C@H](NC(=O)CC[C@H](NC(=O)CC[C@H](NC(=O)CC[C@H](NC(=O)CC[C@H](NC(=O)CCCCCCCCCCCCCCCCCCC(=O)O)C(=O)O)C(=O)O)C(=O)O)C(=O)O)C(=O)O)C(=O)NC(C)(C)C(=O)N[C@H](C(=O)N[C@@H](CCCNC(=N)N)C(=O)N[C@@H](CCC(N)=O)C(=O)N[C@@H](CCCNC(=N)N)C(=O)N[C@@H](Cc1ccc(O)cc1)C(N)=O)[C@@H](C)O` [Compound 28, Y-Aib-E-G-T-F-T-S-D-Y-S-I-Aib-L-E-K-E-A-Q-Aib-A-F-V-R-H-L-I-N-K(1,3)-Aib-T-R-Q-R-Y-NH2.C20DA-gGlu-gGlu-gGlu-gGlu-gGlu-gGlu-eLys(1,2)], for which the solubility in series [1] turned out to be 10000 µg/mL.

`CC[C@H](C)[C@H](NC(=O)[C@H](CC(C)C)NC(=O)[C@H](Cc1c[nH]cn1)NC(=O)[C@H](CCCNC(=N)N)NC(=O)[C@@H](NC(=O)[C@H](Cc1ccccc1)NC(=O)[C@H](C)NC(=O)C(C)(C)NC(=O)[C@H](CCC(N)=O)NC(=O)[C@H](CCC(=O)O)NC(=O)[C@H](CCC(N)=O)NC(=O)[C@H](CCCCN)NC(=O)[C@H](CCC(=O)O)NC(=O)[C@H](CC(C)C)NC(=O)C(C)(C)NC(=O)[C@@H](NC(=O)[C@H](CO)NC(=O)[C@H](Cc1ccc(O)cc1)NC(=O)[C@H](CC(=O)O)NC(=O)[C@H](CO)NC(=O)[C@@H](NC(=O)[C@H](Cc1ccccc1)NC(=O)[C@@H](NC(=O)CNC(=O)[C@H](CCC(=O)O)NC(=O)C(C)(C)NC(=O)[C@@H](N)Cc1ccc(O)cc1)[C@@H](C)O)[C@@H](C)O)[C@@H](C)CC)C(C)C)C(=O)N[C@@H](CC(N)=O)C(=O)N[C@@H](CCCCNC(=O)[C@@H](N)CCCCNC(=O)CC[C@H](NC(=O)CC[C@H](NC(=O)CC[C@H](NC(=O)CC[C@H](NC(=O)CC[C@H](NC(=O)CC[C@H](NC(=O)CCCCCCCCCCCCCCCCC(=O)O)C(=O)O)C(=O)O)C(=O)O)C(=O)O)C(=O)O)C(=O)O)C(=O)NC(C)(C)C(=O)N[C@H](C(=O)N[C@@H](CCCNC(=N)N)C(=O)N[C@@H](CCC(N)=O)C(=O)N[C@@H](CCCNC(=N)N)C(=O)N[C@@H](Cc1ccc(O)cc1)C(N)=O)[C@@H](C)O` [Compound 36, Y-Aib-E-G-T-F-T-S-D-Y-S-I-Aib-L-E-K-Q-E-Q-Aib-A-F-V-R-H-L-I-N-K(1,3)-Aib-T-R-Q-R-Y-NH2.C18DA-gGlu-gGlu-gGlu-gGlu-gGlu-gGlu-eLys(1,2)]: in series [1], the solubility at 2 h worked out at 5000 µg/mL.

`CC[C@H](C)[C@H](NC(=O)[C@H](CO)NC(=O)[C@H](Cc1ccc(O)cc1)NC(=O)[C@H](CC(=O)O)NC(=O)[C@H](CO)NC(=O)[C@@H](NC(=O)[C@H](Cc1ccccc1)NC(=O)[C@@H](NC(=O)CNC(=O)[C@H](CCC(=O)O)NC(=O)C(C)(C)NC(=O)[C@@H](N)Cc1ccc(O)cc1)[C@@H](C)O)[C@@H](C)O)C(=O)NC(C)(C)C(=O)N[C@@H](CC(C)C)C(=O)N[C@@H](CCC(=O)O)C(=O)N[C@@H](CCCCN)C(=O)N[C@@H](CCC(N)=O)C(=O)N[C@@H](C)C(=O)N[C@@H](CCC(N)=O)C(=O)NC(C)(C)C(=O)N[C@@H](C)C(=O)N[C@@H](Cc1ccccc1)C(=O)N[C@H](C(=O)N[C@@H](CCCNC(=N)N)C(=O)N[C@@H](Cc1c[nH]cn1)C(=O)N[C@@H](CC(C)C)C(=O)N[C@@H](CC(C)C)C(=O)N[C@@H](CC(N)=O)C(=O)N[C@@H](CCCCNC(=O)[C@@H](N)CCCCNC(=O)CC[C@H](NC(=O)CC[C@H](NC(=O)CC[C@H](NC(=O)CC[C@H](NC(=O)CC[C@H](NC(=O)CC[C@H](NC(=O)CCCCCCCCCCCCCCCCCCC(=O)O)C(=O)O)C(=O)O)C(=O)O)C(=O)O)C(=O)O)C(=O)O)C(=O)NC(C)(C)C(=O)N[C@H](C(=O)N[C@@H](CCCNC(=N)N)C(=O)N[C@@H](CCC(N)=O)C(=O)N[C@@H](CCCNC(=N)N)C(=O)N[C@@H](Cc1ccc(O)cc1)C(N)=O)[C@@H](C)O)C(C)C` [Compound 80, Y-Aib-E-G-T-F-T-S-D-Y-S-I-Aib-L-E-K-Q-A-Q-Aib-A-F-V-R-H-L-L-N-K(1,3)-Aib-T-R-Q-R-Y-NH2.C20DA-gGlu-gGlu-gGlu-gGlu-gGlu-gGlu-eLys(1,2)]: the EC50 at hGIPR amounted to 1.7 nM.
